# Reference: patent publication US9931367B2, “Uses of cistanche tubulosa extract and isoacteoside in protecting muscle” (SINPHAR TIAN-LI PHARMACEUTICAL CO., LTD. (HANGZHOU), priority 2016, dated 2018)
# What was measured:
# [1] = system: C2C12 cells with TNF-α induced injury; assay: Protection of C2C12 cells against TNF-α induced injury (survival rate, MMP, intracellular ROS); format: cell-based, mice; conditions: pre-treated 6 h, then 10 ng/mL TNF-α 4 days
# Description: C2C12 cells were cultured in H-DMEM medium until 80% confluence was attained. Thereafter, the cells were separated into eleven groups, wherein seven groups thereof were provided with the Cistanche tubulosa extract (CIS) solution (dissolved in DMSO) to provide final concentrations of 0, 1, 5, 10, 50, 100, 500 μg/mL, respectively, and then pre-treatment was carried out for 6 hours; the other three groups were provided with branched chain amino acids (BCAA; served as a positive control) to provide final concentrations of 0.1, 1 or 10 μg/mL respectively, and then pre-treatment was carried out for 6 hours; thereafter, the mediums of the above ten groups (seven groups provided with CIS and three groups provided with BCAA) were replaced by differentiation mediums supplemented with 2% horse serum, and TNA-α was then added into those mediums to provide a final concentration of 10 ng/mL, and then co-treated with differentiation medium for 4 days; the last group served as a control group, which was not treated with the Cistanche tubulosa extract, BCAA, or TNA-α. Finally, the survival rates, MMPs and intracellular ROSs of the C2C12 cells in each group were measured. The control group served as a basis for calculating the relative survival rates, MMPs, and intracellular ROSs of the other groups to determine the effective concentration of Cistanche tubulosa extract for providing a protective effect against the TNF-α induced muscle cell injury. The results are shown in FIG. 3 and FIG. 4 (all the data are presented as average values±SEM, n=6, analyzed with a t-test, *p<0.05, **p<0.01, ***p<0.001).
# According to the results of Example 1, echinacoside (Ech), verbascoside (VB) and isoacteoside (Iso) are the main ingredients of the Cistanche tubulosa extract. To investigate whether the echinacoside, verbascoside and isoacteoside have the effect of protecting muscles, the echinacoside, verbascoside and isoacteoside (all purchased from ChromaDex company, U.S.) were dissolved in DMSO to provide a echinacoside solution, a verbascoside solution and a isoacteoside solution. C2C12 cells were cultured in H-DMEM medium until 80% confluence was attained. Thereafter, the cells were separated into eighteen groups and treated as follows: • (1) Control group: cells were cultured in H-DMEM medium for 6 hours; thereafter the medium was replaced by a differentiation medium supplemented with 2% horse serum, and the cells were cultured for 4 days. • (2) TNF-α group: cells were cultured in H-DMEM medium for 6 hours; thereafter the medium was replaced by a differentiation medium supplemented with 2% horse serum, and TNF-α was then added into the medium (the final concentration was 10 ng/mL) to carry out a co-treatment for 4 days. • (3) TNF-α+echinacoside group (6 groups): the echinacoside solution was added into H-DMEM mediums to provide final concentrations of 1, 5, 10, 50, 100, or 500 μg/mL, respectively. The cells were pre-treated with the above mediums for 6 hours. Thereafter, the mediums were replaced by differentiation mediums supplemented with 2% horse serum, and TNF-α was then added into the mediums (the final concentration was 10 ng/mL) to carry out co-treatments for 4 days. • (4) TNF-α+verbascoside group (5 groups): the verbascoside solution was added into H-DMEM mediums to provide final concentration of 1, 5, 10, 50, or 100 μg/mL, respectively. The cells were pre-treated with the above mediums for 6 hours. Thereafter, the mediums were replaced by differentiation mediums supplemented with 2% horse serum, and TNF-α was then added into the mediums (the final concentration was 10 ng/mL) to carry out co-treatments for 4 days. • (5) TNF-α+isoacteoside group (5 groups): the isoacteoside solution was added into H-DMEM mediums to provide final concentrations of 1, 5, 10, 50, or 100 μg/mL, respectively. The cells were pre-treated with the above mediums for 6 hours. […]
# [2] = system: C2C12 cells; assay: Establishment of TNF-α induced muscle cell injury model (MMP, intracellular ROS); format: cell-based, mice; conditions: 4 days, relative to 0 ng/mL group
# Description: Firstly, C2C12 cells (i.e., muscle cells of mice, purchased from ATCC) were cultured in H-DMEM medium (purchased from Sigma company) until 80% confluence was attained (i.e., the mixed cell monolayer comprises 80% of area). Thereafter, the cells were separated into four groups, and the mediums of all the groups were replaced by differentiation mediums supplemented with 2% horse serum. TNF-α (purchased from Sigma company) was then added into those mediums to provide final concentrations of 0, 2, 5, 10 ng/mL respectively. After being co-treated with the differentiation medium and TNF-α for 4 days, the mitochondrial membrane potential (MMP) and intracellular reactive oxidative stress (ROS) of the C2C12 cells were measured to serve as the index for model evaluation. Accordingly, a TNF-α induced muscle cell injury model was established. Finally, the group that was not treated with TNF-α (i.e., the concentration of TNF-α was 0 ng/mL) served as a basis for calculating the relative MMPs and intracellular ROSs of the other groups. The results are shown in FIG. 1 (all the data are presented as average values±SEM, n=6, analyzed with a t-test, *p<0.05, ***p<0.001).
molecule,measurement,setting,value
echinacoside,concentration at which the protective effect (survival rate) became significant,[1]; 5 to 500 μg/mL tested,100 µg/mL
same,protective effect on MMP,[1]; 5 to 500 μg/mL,did not exhibit protective effect
same,protective effect on ROS,[1]; 5 to 500 μg/mL,did not exhibit protective effect
same,protective effect (survival rate),[1]; lower concentration within 5 to 500 μg/mL,not significant
C[C@@H]1O[C@@H](O[C@@H]2[C@@H](O)[C@H](OCCc3ccc(O)c(O)c3)O[C@H](COC(=O)/C=C/c3ccc(O)c(O)c3)[C@H]2O)[C@H](O)[C@H](O)[C@H]1O [isoacteoside],decrease in the MMP induced by TNF-α,[1]; 100 μg/mL,significantly ameliorated
same,survival rate,[1]; 5 to 100 μg/mL,increased
same,intracellular ROS,[1]; 10 to 100 μg/mL,significantly decreased
TNF-α,intracellular reactive oxidative stress (ROS),[2]; 5 ng/mL TNF-α,slightly increased
same,mitochondrial membrane potential (MMP),[2]; 5 ng/mL TNF-α,significantly decreased
same,intracellular reactive oxidative stress (ROS),[2]; 10 ng/mL TNF-α,significantly increased
same,mitochondrial membrane potential (MMP),[2]; 10 ng/mL TNF-α,significantly decreased
C[C@@H]1O[C@@H](O[C@@H]2[C@@H](O)[C@H](OCCc3ccc(O)c(O)c3)O[C@H](CO)[C@H]2OC(=O)/C=C/c2ccc(O)c(O)c2)[C@H](O)[C@H](O)[C@H]1O [verbascoside],"protection of C2C12 cells against TNF-α induced injury (survival rate, MMP, ROS)",[1]; 1 to 100 μg/mL,could not protect
